Assay results reported in the supplement of paper PMC10307832.

Columns and labels:
Experiment in all cases: relative viability (nuclei count vs DMSO), 5 days (fraction); higher = more cells survive
NCI-H2087 = test system: NCI-H2087
Method in brief: (§1)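 Relative viability is defined as nuclei in treated wells over nuclei in vehicle wells. Duplicate plates were run and medians reported. Lung cancer cell lines in 1536-well plates were dosed by pin tool one day after seeding, with one drug or with a fixed anchor-drug dose plus five library-drug doses (not always all listed) in √10 steps, and nuclei were counted after 5 days.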

NCI-H1734 = test system: NCI-H1734
Method in brief: as §1

NCI-H522 = test system: NCI-H522
Method in brief: as §1

NCI-H1993 = test system: NCI-H1993
Method in brief: as §1

NCI-H1792 = test system: NCI-H1792
Method in brief: as §1

NCI-H1437 = test system: NCI-H1437
Method in brief: as §1

NCI-H1395 = test system: NCI-H1395
Method in brief: as §1

SK-LU-1 = test system: SK-LU-1
Method in brief: as §1

NCI-H2405 = test system: NCI-H2405
Method in brief: as §1

NCI-H647 = test system: NCI-H647
Method in brief: as §1

HCC-827 = test system: HCC-827
Method in brief: as §1

NCI-H1355 = test system: NCI-H1355
Method in brief: as §1

BEN = test system: BEN
Method in brief: as §1

EKVX = test system: EKVX
Method in brief: as §1

NCI-H661 = test system: NCI-H661
Method in brief: as §1

NCI-H2009 = test system: NCI-H2009
Method in brief: as §1

HARA = test system: HARA
Method in brief: as §1

HCC-366 = test system: HCC-366
Method in brief: as §1

SK-MES-1 = test system: SK-MES-1
Method in brief: as §1

NCI-H2342 = test system: NCI-H2342
Method in brief: as §1

LOU-NH91 = test system: LOU-NH91
Method in brief: as §1

NCI-H2170 = test system: NCI-H2170
Method in brief: as §1

Q: Which results are given for CCN(CC)CCCCNc1ncc2cc(-c3cc(OC)cc(OC)c3)c(NC(=O)NC(C)(C)C)nc2n1 + COc1cccc2cc(-c3nc([C@H]4CC[C@H](C(=O)O)CC4)n4ncnc(N)c34)[nH]c12 [OSI-027] (partner 0.5 µM)?
A: relative viability (NCI-H2087; first compound 0.01 µM): 0.618; relative viability (NCI-H2087; first compound 0.03162 µM): 0.5; relative viability (NCI-H2087; first compound 0.1 µM): 0.733; relative viability (NCI-H2087; first compound 0.3162 µM): 0.636; relative viability (NCI-H2087; first compound 1 µM): 0.6; relative viability (NCI-H1734; first compound 0.01 µM): 0.647; relative viability (NCI-H1734; first compound 0.03162 µM): 0.61; relative viability (NCI-H1734; first compound 0.1 µM): 0.634; relative viability (NCI-H1734; first compound 0.3162 µM): 0.666; relative viability (NCI-H1734; first compound 1 µM): 0.526; relative viability (NCI-H522; first compound 0.01 µM): 0.639; relative viability (NCI-H522; first compound 0.03162 µM): 0.625; relative viability (NCI-H522; first compound 0.1 µM): 0.676; relative viability (NCI-H522; first compound 0.3162 µM): 0.674; relative viability (NCI-H522; first compound 1 µM): 0.698; relative viability (NCI-H1993; first compound 0.01 µM): 0.259; relative viability (NCI-H1993; first compound 0.03162 µM): 0.559; relative viability (NCI-H1993; first compound 0.1 µM): 0.532; relative viability (NCI-H1993; first compound 0.3162 µM): 0.604; relative viability (NCI-H1993; first compound 1 µM): 0.535; relative viability (NCI-H1792; first compound 0.01 µM): 0.602; relative viability (NCI-H1792; first compound 0.03162 µM): 0.783; relative viability (NCI-H1792; first compound 0.1 µM): 0.706; relative viability (NCI-H1792; first compound 0.3162 µM): 0.723; relative viability (NCI-H1792; first compound 1 µM): 0.523; relative viability (NCI-H1437; first compound 0.01 µM): 0.978; relative viability (NCI-H1437; first compound 0.03162 µM): 0.876; relative viability (NCI-H1437; first compound 0.1 µM): 0.925; relative viability (NCI-H1437; first compound 0.3162 µM): 0.874; relative viability (NCI-H1437; first compound 1 µM): 0.857; relative viability (NCI-H1395; first compound 0.01 µM): 0.578; relative viability (NCI-H1395; first compound 0.03162 µM): 0.697; relative viability (NCI-H1395; first compound 0.1 µM): 0.745; relative viability (NCI-H1395; first compound 0.3162 µM): 0.554; relative viability (NCI-H1395; first compound 1 µM): 0.458; relative viability (SK-LU-1; first compound 0.01 µM): 0.412; relative viability (SK-LU-1; first compound 0.03162 µM): 0.377; relative viability (SK-LU-1; first compound 0.1 µM): 0.33; relative viability (SK-LU-1; first compound 0.3162 µM): 0.341; relative viability (SK-LU-1; first compound 1 µM): 0.219; relative viability (NCI-H2405; first compound 0.01 µM): 0.647; relative viability (NCI-H2405; first compound 0.03162 µM): 0.659; relative viability (NCI-H2405; first compound 0.1 µM): 0.585; relative viability (NCI-H2405; first compound 0.3162 µM): 0.602; relative viability (NCI-H2405; first compound 1 µM): 0.691; relative viability (NCI-H647; first compound 0.01 µM): 0.539; relative viability (NCI-H647; first compound 0.03162 µM): 0.8; relative viability (NCI-H647; first compound 0.1 µM): 0.848; relative viability (NCI-H647; first compound 0.3162 µM): 0.861; relative viability (NCI-H647; first compound 1 µM): 0.56; relative viability (HCC-827; first compound 0.01 µM): 0.809; relative viability (HCC-827; first compound 0.03162 µM): 0.761; relative viability (HCC-827; first compound 0.1 µM): 0.836; relative viability (HCC-827; first compound 0.3162 µM): 0.95; relative viability (HCC-827; first compound 1 µM): 0.655; relative viability (NCI-H1355; first compound 0.01 µM): 0.405; relative viability (NCI-H1355; first compound 0.03162 µM): 0.404; relative viability (NCI-H1355; first compound 0.1 µM): 0.417; relative viability (NCI-H1355; first compound 0.3162 µM): 0.45; relative viability (NCI-H1355; first compound 1 µM): 0.367; relative viability (BEN; first compound 0.01 µM): 0.242; relative viability (BEN; first compound 0.03162 µM): 0.285; relative viability (BEN; first compound 0.1 µM): 0.347; relative viability (BEN; first compound 0.3162 µM): 0.311; relative viability (BEN; first compound 1 µM): 0.282; relative viability (EKVX; first compound 0.01 µM): 0.734; relative viability (EKVX; first compound 0.03162 µM): 0.721; relative viability (EKVX; first compound 0.1 µM): 0.711; relative viability (EKVX; first compound 0.3162 µM): 0.765; relative viability (EKVX; first compound 1 µM): 0.671; relative viability (NCI-H661; first compound 0.01 µM): 0.784; relative viability (NCI-H661; first compound 0.03162 µM): 0.727; relative viability (NCI-H661; first compound 0.1 µM): 0.779; relative viability (NCI-H661; first compound 0.3162 µM): 0.743; relative viability (NCI-H661; first compound 1 µM): 0.48; relative viability (NCI-H2009; first compound 0.01 µM): 0.678; relative viability (NCI-H2009; first compound 0.03162 µM): 0.669; relative viability (NCI-H2009; first compound 0.1 µM): 0.642; relative viability (NCI-H2009; first compound 0.3162 µM): 0.675; relative viability (NCI-H2009; first compound 1 µM): 0.604; relative viability (HARA; first compound 0.01 µM): 0.522; relative viability (HARA; first compound 0.03162 µM): 0.647; relative viability (HARA; first compound 0.1 µM): 0.429; relative viability (HARA; first compound 0.3162 µM): 0.697; relative viability (HARA; first compound 1 µM): 0.446; relative viability (HCC-366; first compound 0.01 µM): 1.02; relative viability (HCC-366; first compound 0.03162 µM): 1.01; relative viability (HCC-366; first compound 0.1 µM): 1.2; relative viability (HCC-366; first compound 0.3162 µM): 1.06; relative viability (HCC-366; first compound 1 µM): 1.24; relative viability (SK-MES-1; first compound 0.01 µM): 0.627; relative viability (SK-MES-1; first compound 0.03162 µM): 0.654; relative viability (SK-MES-1; first compound 0.1 µM): 0.58; relative viability (SK-MES-1; first compound 0.3162 µM): 0.81; relative viability (SK-MES-1; first compound 1 µM): 0.521; relative viability (NCI-H2342; first compound 0.01 µM): 0.676; relative viability (NCI-H2342; first compound 0.03162 µM): 0.615; relative viability (NCI-H2342; first compound 0.1 µM): 0.622; relative viability (NCI-H2342; first compound 0.3162 µM): 0.701; relative viability (NCI-H2342; first compound 1 µM): 0.568; relative viability (LOU-NH91; first compound 0.01 µM): 0.672; relative viability (LOU-NH91; first compound 0.03162 µM): 0.741; relative viability (LOU-NH91; first compound 0.1 µM): 0.776; relative viability (LOU-NH91; first compound 0.3162 µM): 0.776; relative viability (LOU-NH91; first compound 1 µM): 0.696; relative viability (NCI-H2170; first compound 0.01 µM): 0.768; relative viability (NCI-H2170; first compound 0.03162 µM): 0.67; relative viability (NCI-H2170; first compound 0.1 µM): 0.71; relative viability (NCI-H2170; first compound 0.3162 µM): 0.79; relative viability (NCI-H2170; first compound 1 µM): 0.75
